Source: patent publication US20040121474A1, “Detection and evaluation of chemically-mediated and ligand-mediated t-cell activation using optophoretic analysis” (Genoptix, Inc, priority 2002, published 2004)

Tests used:
Format in all cases: cell-based
HL-60 cells = assay: Escape velocity, differentiation of HL-60 cells; settings: 200 ng/ml PMA
Description: Initial tests were performed using HL-60 cells treated with PMA. HL-60 cells were seeded at about 1-3×10^6 cells per well in six well plates. The cells were treated with 200 ng/ml PMA while the control cells were treated with ethanol (EtOH) vehicle for four hours at 37° C. After incubation for four hours the treated cells were washed with PBS and re-fed with growth media. The treated HL-60 cells were then allowed to differentiate for 72 hours in normal growth media. After the 72 hour period, the untreated control cells were collected by centrifugation, washed with PBS and pelleted for resuspension at 1.5×10^6 cells/ml in PBS/1% BSA. Treated cells were trypsinized and collected by centrifugation then washed in PBS and pelleted for resuspension at 1×10^6 cells/ml in PBS/1% BSA. The cells were then subjected to Optophoretic analysis by measuring the escape velocities of the treated and control cells. Table 23 shown below illustrates the measured escape velocities of the undifferentiated and differentiated cells at 72 hours post treatment.

[1] = tested on: CD11b expression in HL-60 cells; assay: FACS CD11b expression profile; settings: 400 ng/ml PMA
Description: Fast scan analysis was also performed on HL-60 cells that were treated with PMA and DMSO. A time course evaluation of PMA treated HL-60 cells was performed with fast scan data taken at 16 hours, 24 hours, 40 hours, and 72 hours post-treatment with 400 ng/ml PMA. A control sample of HL-60 cells was also tested using EtOH as the vehicle for purposes of comparing the differentiated cells with the undifferentiated HL-60 cells. The PMA-treated and control cells were harvested and trypsinized. The samples were then resuspended in PBS/1% BSA. A set of samples was also obtained and left as pellets at 4° C. for subsequent FACS analysis.
FIG. 145 illustrates a histogram of the travel distance of the control cells as well as the PMA-treated cells at 16 hours, 24 hours, 40 hours, and 72 hours post-treatment. FIG. 146 illustrates the mean travel distances of the control cells as well as the PMA-treated cells at 16 hours, 24 hours, 40 hours, and 72 hours post-treatment. FIG. 147 illustrates the FACS CD11b expression profile in PMA-treated HL-60 cells as well as the control. CD11b is a known marker of cellular differentiation and is expressed on the surface of differentiating cells. […] The data illustrate that Optophoretic analysis can be used as an assay for the detection and quantification of cellular differentiation. […]

U937 cells = assay: Escape velocity, PMA inhibition by bisindolymaleimide; settings: 10 ng/ml PMA only, four hours
Source text: The objective of this experiment was to test the effect of bisindolymaleimide on cells exposed to PMA. Bisindolymaleimide is a Protein Kinase C inhibitor and should block the effect of PMA on U937 cells and their escape velocities. As shown in this and prior experiments, exposure of U937 cells to PMA results in an increase in the escape velocity of the cells. Therefore, it is anticipated that addition of bisindolymaleimide will reduce or eliminate the increase in escape velocity caused by PMA. This has in fact been observed in the data shown below.
Bisindolymaleimide was tested at two concentrations: 200 ng/ml and 50 ng/ml. Samples not treated with bisindolymaleimide received an equivalent amount of the carrier, MeOH, as a control. […] The concentration of PMA tested was 10 ng/ml. Samples not receiving PMA received DMSO.
Once the flasks were prepared, they were incubated at 37° C. 5% CO2 for four hours. At the four hour timepoint, 300 μl of cells were removed from each flask and pelleted at 5000 rpm for 5 minutes. The cells were then resuspended in 6 ml PBS/1% BSA and 60 μl trypan blue.

In the case of `CCCCCCCCCCCCCC(=O)O[C@@H]1[C@@H](C)[C@@]2(O)[C@@H](C=C(CO)C[C@]3(O)C(=O)C(C)=C[C@@H]23)[C@@H]2C(C)(C)[C@]12OC(C)=O` [PMA, phorbol 12 myristate 13-acetate], the “Escape velocity Average” value (HL-60 cells; HL-60 + PMA at 72 hours (differentiated), control 11.9) is reported as 14.0 μm/sec, the “increase in measured escape velocity as compared to the control cells” value (HL-60 cells; HL-60 cells, 72 hours) is reported as “about 2 μm/se c” and the “time after treatment at which a noticeable change in CD11b expression levels was observed” value [1] is reported as “about 40 hours”. For the same molecule, the “Escape velocity Ave.” value (U937 cells) was 15.4 μm/sec.
